Key:
[1] = target: T1, Nicotinic acetylcholine receptor alpha8 subunit (Periplaneta americana) (UniProt H6TY12); assay: Neuroblocking activity in Periplaneta americana (American cockroach) nicotinic acetylcholine receptor in abdominal fifth and sixth ganglia nerve assessed as neuroblocking concentration by neurophysiological test
T1 sequence (whole entry): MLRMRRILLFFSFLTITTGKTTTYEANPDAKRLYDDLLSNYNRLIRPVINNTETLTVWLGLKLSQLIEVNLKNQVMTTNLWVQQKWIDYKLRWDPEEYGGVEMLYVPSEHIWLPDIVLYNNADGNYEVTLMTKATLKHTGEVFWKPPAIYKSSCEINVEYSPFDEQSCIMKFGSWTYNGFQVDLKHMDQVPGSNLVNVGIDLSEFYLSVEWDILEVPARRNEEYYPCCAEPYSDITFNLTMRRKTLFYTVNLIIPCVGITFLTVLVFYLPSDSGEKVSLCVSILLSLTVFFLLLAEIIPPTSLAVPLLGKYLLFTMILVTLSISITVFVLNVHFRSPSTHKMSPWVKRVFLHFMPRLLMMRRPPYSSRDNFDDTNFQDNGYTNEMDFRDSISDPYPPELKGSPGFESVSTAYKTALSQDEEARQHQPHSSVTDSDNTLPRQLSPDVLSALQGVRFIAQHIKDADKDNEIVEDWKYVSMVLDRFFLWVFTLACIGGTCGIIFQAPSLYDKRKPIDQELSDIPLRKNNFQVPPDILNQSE

Periplaneta americana = assay: Toxic effect in Periplaneta americana (American cockroach) assessed as paralyzed insects after 24 hr of abdomen compound injection by insecticidal assay; type: functional
[2] = Hydrophobicity, log P of the compound in octanol-water by shaking-flask method; type: physicochemical

SMILES | log(1/BC) [1] | log(1/MLD) (Periplaneta americana) | logP [2]
CN1CCN(Cc2ccc(Cl)nc2)/C1=C/[N+](=O)[O-] | 3.84 | 7.77 | -0.84
O=[N+]([O-])/N=C1\NCCN1Cc1cnc(Cl)s1 [IMIDACLOTHIZ] | 5.97 | 8.42 | 0.61
O=[N+]([O-])/C=C1\CCCN1Cc1ccc(Cl)nc1 | 6.43 | 9.84 | 0.45
O=[N+]([O-])/N=c1\ccccn1Cc1ccc(Cl)nc1 | 5.09 | 8.88 | 0.51
O=[N+]([O-])/N=c1\[nH]ccn1Cc1cnc(Cl)s1 | 4.61 | 8.12 | 0.27
O=[N+]([O-])/C=C1\NCCN1Cc1ccc(Cl)nc1 | 5.02 | 9.19 | -0.18
O=[N+]([O-])/C=C1\CCCN1Cc1cnc(Cl)s1 | 6.31 | 8.96 | 
O=[N+]([O-])/N=C1\NCCCN1Cc1ccc(Cl)nc1 | 5.35 | 8.22 | 0.57
CN1CCN(Cc2ccc(Cl)nc2)/C1=N/[N+](=O)[O-] | 3.81 | 8.53 | -0.07
O=[N+]([O-])/N=c1\sccn1Cc1cnc(Cl)s1 | 5.79 | 7.85 | 0.96
O=[N+]([O-])/C=C1\SCCN1Cc1ccc(Cl)nc1 | 6.19 | 9.76 | 0.47
O=[N+]([O-])/N=c1\sccn1Cc1ccc(Cl)nc1 | 5.68 | 8.85 | 0.53
O=[N+]([O-])/N=C1\SCCN1Cc1cnc(Cl)s1 | 6 | 7.42 | 0.8
O=[N+]([O-])/N=C1\NCCN1Cc1ccc(Cl)nc1 [IMIDACLOPRID] | 5.64 | 8.96 | 
O=[N+]([O-])Nc1nccn1Cc1ccc(Cl)nc1 [DEHYDROIMIDACLOPRID] | 4.31 | 7.72 | 0.33
O=[N+]([O-])NC1=NCCN1Cc1ccc(Cl)nc1 [IMIDACLOPRID] |  |  | 0.53
O=[N+]([O-])/C=C1\NCCN1Cc1cnc(Cl)s1 | 5.73 | 9.34 | 0.03
O=[N+]([O-])/N=c1\ccccn1Cc1cnc(Cl)s1 | 5.75 | 8.92 | 0.67
